US8466203B2, “Method of stabilizing human eye tissue by reaction with nitrite and related agents such as nitro compounds” (priority 2006, dated 2013)

Assays:
[1] = tested on: primary bovine corneal endothelial cells; details: bovine, 48 h
porcine sclera = assay: Thermal shrinkage temperature analysis of porcine scleral strips; details: for shift in Ts (in words): neutral pH, up to 100 mM
Excerpt: (§1) Thermal shrinkage temperature or denaturation temperature (Ts) is a technique that has been used for decades in studying collagen cross-linking. As collagen fibers are progressively heated, a threshold temperature is reached at which point disruption of hydrogen bonding in the collagen molecule triple helix occurs, resulting in unwinding of the triple helices. The denaturation of tertiary protein structure results in a rapid shrinkage of the tissue of up to 80%. This phenomenon can be expressed in various ways including temperature of onset of tissue shrinkage, temperature at maximal tissue shrinkage, and temperature at 50% of maximal tissue shrinkage, for example. In addition, differential scanning calorimetry (DSC) is related to thermal shrinkage temperature analysis and is widely used to evaluate biomaterial cross-linking. Thermal shrinkage temperature is essentially a simplified version of DSC and can be used effectively to screen the cross-linking efficacy of compounds. For the purposes of this study, the onset of shrinkage is considered the Ts and the temperature at which 50% of maximal shrinkage has occurred is T50. Graphs depicting the relationship between degree of shrinkage and temperature indicate differences in degree of cross-linking between groups. Thus, stabilization of collagen fiber structures through non-enzymatic cross-linking increases Ts and T50.
(§2) This system can perform multiple Ts assays in succession, allowing rapid screening of a number of potential cross-linking agents and conditions. […] Inlet and outlet fittings allow for constant circulation of heated water which is modulated by a digitally controlled water bath equipped with a water pump. The entire box is placed on a digital photo scanner connected to a Windows based computer. Beginning at 50° C. the temperature is raised at a rate of 1° C./min and serial scans are taken at every degree increase in temperature up to 80° C. […] As the tissue shrinks, the images are captured by the scanner. The image files are later analyzed for 2-dimensional area using NIH Image J software and % shrinkage calculations are made using Microsoft Excel for graphing purposes. This method obviates the need for removal of tissue pieces from the water bath with manual micrometer measurements as described by the UVR group (Spoerl, E., et al., 2004).
Using this simple, reproducible assay enables the screening of a number of compounds for cross-linking efficacy. This is first performed using porcine eyes because of their low cost. Follow up studies can be performed using human eyes. Porcine eyes are obtained within 6 hrs of sacrifice (Hatfield Meat Packing, Inc., Hatfield Pa.). Eyes showing clear corneas and intact epithelia are chosen for study. […] Each strip is then cross-linked using a nitro agent. […] Opthalmol. 1999; 117:166-169) for 24-96 hrs. Following incubation, the samples are evaluated for degree of cross-linking using the Ts assay as described above.
From the data, Ts curves are generated for each compound and condition studied. Each data point is the average of 3 independent samples.

porcine cornea [2] = assay: Gross stiffness of porcine corneal strips handled with a forceps; details: 100 mM, pH 7.4, 37° C., 48 hrs
Procedure: Fresh porcine corneal strips and corneoscleral complexes obtained within 6 hrs of sacrifice and incubated at 37° C. in buffered solutions (pH 7.4) containing 20% Dextran (T500) and either 100 mM NaNO2 or 100 mM of one each of the specified β-nitro alcohols
(§3) These images were taken from tissues cross-linked with nitrite and the β-nitro alcohols 2-nitroethanol, 2-nitro-1-propanol, and […], for 48 hrs. […] Fresh porcine corneal strips and corneoscleral complexes were obtained within 6 hrs of sacrifice and incubated at 37° C. in buffered solutions (pH 7.4) containing 20% Dextran (T500) and either 100 mM NaNO2 or 100 mM of one each of the β-nitro alcohols. After 48 hrs, the following images were obtained. […] FIGS. 13 (B and D)

human fibroblasts = details: Sung 1998; cited from earlier work
porcine cornea [3] = assay: Yellowing of cross-linked porcine cornea
Procedure: as §3
As such, the effects on corneal light transmission induced by cross-linking with β-nitro alcohols was evaluated using a method adopted from Dillon et al 2004.

porcine cornea [4] = assay: Thermal shrinkage temperature analysis of porcine corneal strips
Excerpt: as §1, §2
Using this simple, reproducible assay enables the screening of a number of compounds for cross-linking efficacy. This is first performed using porcine eyes because of their low cost. Follow up studies can be performed using human eyes. Porcine eyes are obtained within 6 hrs of sacrifice (Hatfield Meat Packing, Inc., Hatfield Pa.). Eyes showing clear corneas and intact epithelia are chosen for study. […] Each strip is then cross-linked using a nitro agent. The incubation solution is 20% Dextran (T500) [to prevent tissue swelling] in 0.2 M NaH2PO4/Na2HPO4 (pH 7.4) with various concentrations of nitro agent (i.e. 1, 10, and 100 mM). […] The samples are then placed in 2 mL microcentrifuge tubes with 1 mL of incubation solution and reacted in a 34° C. water bath (simulating corneal temperature—Girardin, F., et al., “Relationship between corneal temperature and finger temperature,” Arch. Opthalmol. 1999; 117:166-169) for 24-96 hrs. Following incubation, the samples are evaluated for degree of cross-linking using the Ts assay as described above.

[5] = 1 mM reagent, pH 7.4, 37° C., 96 hrs
[6] = 10 mM reagent, pH 7.4, 37° C., 96 hrs
[7] = 100 mM reagent, pH 7.4, 37° C., 96 hrs
[8] = 100 mM, 24 hrs reaction, pH 7.4

SMILES	T50 (temperature at 50% of maximal shrinkage) (porcine sclera; [5]) [°C]	T50 Δ (change in 50% shrinkage temperature compared to control) (porcine sclera; [5]) [°C]	T50 (temperature at 50% of maximal shrinkage) (porcine sclera; [6]) [°C]	T50 Δ (change in 50% shrinkage temperature compared to control) (porcine sclera; [6]) [°C]	Ti (temperature at 1% absolute shrinkage) (porcine sclera; [6]) [°C]	T50 (temperature at 50% of maximal shrinkage) (porcine sclera; [7]) [°C]	T50 Δ (change in 50% shrinkage temperature compared to control) (porcine sclera; [7]) [°C]	Ti (temperature at 1% absolute shrinkage) (porcine sclera; [7]) [°C]	shift in Ts (in words) (porcine sclera)	further results
CCC(C(C)O)[N+](=O)[O-] (stereo not drawn) [3-nitro-2-pentanol]	66.2	0.9	67.7	2.4	65.3	70.7	5.4	68.3		highest tolerated level [1]: 2 mM; Ti (temperature at 1% absolute shrinkage) (porcine sclera; [5]): 62.5 °C; stiffness change when handled with a forceps (porcine cornea [2]): dramatic stiffness change
COC(=O)C1=CO[C@@H](O)[C@@H]2C(CO)=CC[C@H]12 [genipin]										tolerable level relative to epoxy (human fibroblasts): more than 20 ×; tolerable level relative to glutaraldehyde (human fibroblasts): more than 100 ×
O=CCCCC=O [Glutaraldehyde, reference compound]	68.9	3.6								potency as a cross-linking agent relative to 2-nitroethanol (porcine sclera; at moderate levels of T50 shift (~4° C.)): approximately 10 ×
C[S+](C)[O-] [DMSO, reference compound]										T50 (porcine sclera; 1% reagent, pH 7.4, 96 hrs): 65.0 °C; T50 Δ (porcine sclera; 1% reagent, pH 7.4, 96 hrs): −0.3 °C
CCCC(CO)[N+](=O)[O-] (stereo not drawn) [2-nitro-1-pentanol]										yellowing (tinting) (porcine cornea [3]): without producing yellowing; shifts in Ts (in words) (porcine cornea [4]): produce shifts in Ts
CC(CO)[N+](=O)[O-] (stereo not drawn) [2-nitro-1-propanol]	66.0	0.7	67.5	2.2	64.4	72.7	7.4	69.5		yellowing (tinting) (porcine cornea [3]): without producing yellowing; highest tolerated level [1]: 0.75 mM; shifts in Ts (in words) (porcine cornea [4]): produce shifts in Ts; Ti (temperature at 1% absolute shrinkage) (porcine sclera; [5]): 63.0 °C; stiffness change when handled with a forceps (porcine cornea [2]): intermediate effect
NCCO [2-aminoethanol, reference compound]						67.9	2.6	64.3	only a marginal shift in Ts	
NCCCN(CCCN)/[N+]([O-])=N/O [DPTA/NONO, dipropylenetriamine NONOate, reference compound]									Neither compound was able to shift Ts parameters	T50 (porcine sclera; 10 mM, 24 hrs reaction, pH 7.4): 66.4 °C; T50 Δ (porcine sclera; 10 mM, 24 hrs reaction, pH 7.4): 1.1 °C; T50 (porcine sclera; [8]): 66.2 °C; T50 Δ (porcine sclera; [8]): 0.9 °C
NCCN(CCN)/[N+]([O-])=N/O [DETA/NONO, diethylenetriaamine NONOate, reference compound]						65.5	0.2		Neither compound was able to shift Ts parameters	
O=[N+]([O-])c1ccccc1O [2-nitrophenol, reference compound]	65.2	−0.1	65.6	0.3	62.3	66.0	0.7	62.9	very little shift in Ts	Ti (temperature at 1% absolute shrinkage) (porcine sclera; [5]): 62.2 °C
C=O [Formaldehyde, reference compound]										T50 (temperature at 50% of maximal shrinkage) (porcine sclera; pH 7.4): 67.7 °C; T50 Δ (change in 50% shrinkage temperature compared to control) (porcine sclera; pH 7.4): 2.4 °C
CC[N+](=O)[O-] [2-nitroethane, reference compound]			65.4	0.1	62.5	65.3	0	62.5	did not shift the Ts to any extent	
CCO [Ethanol, reference compound]						65.2	−0.1			
